Experimental data: the supplement of paper PMC4862054

Columns and labels:
Conditions in all cases: incubation time: 72 h
MDA-MB-453 [1] = test: normalised response (% of control), CellTiter-Glo; higher = more viable cells (100 = DMSO, 0 = benzethonium chloride kill control)
Method: (§1)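 DSRT, 72 h incubation, CellTox Green / CellTiter-Glo readout. Signal is normalised to DMSO and benzethonium chloride controls. Value is the normalised response at the highest dose.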

CAL-85-1 [2] = test: as above
Method: as §1

MDA-MB-436 [3] = test: as above
Method: as §1

HCC1599 [4] = test: as above
Method: as §1

MCF-10A [5] = test: as above
Method: as §1

SK-BR-3 = test: as above
Method: as §1

HDQ-P1 [6] = test: as above
Method: as §1

DU-4475 [7] = test: as above
Method: as §1

MDA-MB-468 [8] = test: as above
Method: as §1

Hs578T [9] = test: as above
Method: as §1

CAL-148 [10] = test: as above
Method: as §1

CAL-51 [11] = test: as above
Method: as §1

CAL-120 [12] = test: as above
Method: as §1

HCC1143 [13] = test: as above
Method: as §1

BT-474 [14] = test: as above
Method: as §1

HCC1937 [15] = test: as above
Method: as §1

BT-549 [16] = test: as above
Method: as §1

MDA-MB-231 [17] = test: as above
Method: as §1

MFM-223 [18] = test: as above
Method: as §1

MDA-MB-453 [19] = test: normalised response (% of control), CellTox Green; higher = less cell death (100 = DMSO, 0 = benzethonium chloride kill control)
Procedure, shortened: (§2)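 Breast cancer cell lines (20 µl suspension) were seeded into 384-well plates holding compound at 5 concentrations in 10-fold steps over a compound-specific 10,000-fold range, then incubated 72 h. CellTox Green fluorescence (485/520 nm) was read first, then CellTiter-Glo luminescence after 10 min at room temperature. Each plate was normalised to 0.1 % DMSO (100) and a positive kill control (0). Each value is the normalised signal at a single concentration of the series.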

CAL-85-1 [20] = test: as above
Procedure, shortened: as §2

MDA-MB-436 [21] = test: as above
Procedure, shortened: as §2

HCC1599 [22] = test: as above
Procedure, shortened: as §2

MCF-10A [23] = test: as above
Procedure, shortened: as §2

HDQ-P1 [24] = test: as above
Procedure, shortened: as §2

DU-4475 [25] = test: as above
Procedure, shortened: as §2

MDA-MB-468 [26] = test: as above
Procedure, shortened: as §2

Hs578T [27] = test: as above
Procedure, shortened: as §2

CAL-148 [28] = test: as above
Procedure, shortened: as §2

CAL-51 [29] = test: as above
Procedure, shortened: as §2

CAL-120 [30] = test: as above
Procedure, shortened: as §2

HCC1143 [31] = test: as above
Procedure, shortened: as §2

BT-474 [32] = test: as above
Procedure, shortened: as §2

HCC1937 [33] = test: as above
Procedure, shortened: as §2

BT-549 [34] = test: as above
Procedure, shortened: as §2

MDA-MB-231 [35] = test: as above
Procedure, shortened: as §2

MFM-223 [36] = test: as above
Procedure, shortened: as §2

Compound | normalised response (MDA-MB-453 [1]) [%] | normalised response (CAL-85-1 [2]) [%] | normalised response (MDA-MB-436 [3]) [%] | normalised response (HCC1599 [4]) [%] | normalised response (MCF-10A [5]) [%] | normalised response (SK-BR-3) [%] | normalised response (HDQ-P1 [6]) [%] | normalised response (DU-4475 [7]) [%] | normalised response (MDA-MB-468 [8]) [%] | normalised response (Hs578T [9]) [%] | normalised response (CAL-148 [10]) [%] | normalised response (CAL-51 [11]) [%] | normalised response (CAL-120 [12]) [%] | normalised response (HCC1143 [13]) [%] | normalised response (BT-474 [14]) [%] | normalised response (HCC1937 [15]) [%] | normalised response (BT-549 [16]) [%] | normalised response (MDA-MB-231 [17]) [%] | normalised response (MFM-223 [18]) [%] | normalised response (MDA-MB-453 [19]) [%] | normalised response (CAL-85-1 [20]) [%] | normalised response (MDA-MB-436 [21]) [%] | normalised response (HCC1599 [22]) [%] | normalised response (MCF-10A [23]) [%] | normalised response (HDQ-P1 [24]) [%] | normalised response (DU-4475 [25]) [%] | normalised response (MDA-MB-468 [26]) [%] | normalised response (Hs578T [27]) [%] | normalised response (CAL-148 [28]) [%] | normalised response (CAL-51 [29]) [%] | normalised response (CAL-120 [30]) [%] | normalised response (HCC1143 [31]) [%] | normalised response (BT-474 [32]) [%] | normalised response (HCC1937 [33]) [%] | normalised response (BT-549 [34]) [%] | normalised response (MDA-MB-231 [35]) [%] | normalised response (MFM-223 [36]) [%]
C/C(=C\c1csc(C)n1)[C@@H]1C[C@@H]2O[C@]2(C)CCC[C@H](C)[C@H](O)[C@@H](C)C(=O)C(C)(C)[C@@H](O)CC(=O)O1 [Patupilone] (1000 nM) | 53.2 | 20.7 | 31.5 | 25.3 | 41.5 | 11.7 | 62.4 | 49.2 | 36 | 12.2 | 54.1 | 25.4 | 58.4 | 31.3 | 36.8 | 74 | 18.5 | 29.8 | 47.4 | 96.4 | -11.4 | 78.4 | 92.5 | 20.1 | 93.3 | 100 | 97.4 | -68.9 | 52.6 | 41.2 | 87.5 | 53.7 | 52.6 | 103 | 74.4 | -10.5 | 55.5
CO[C@H]1C[C@@H]2CC[C@@H](C)[C@@](O)(O2)C(=O)C(=O)N2CCCC[C@H]2C(=O)O[C@H]([C@H](C)C[C@@H]2CC[C@@H](OCCO)[C@H](OC)C2)CC(=O)[C@H](C)/C=C(\C)[C@@H](O)[C@@H](OC)C(=O)[C@H](C)C[C@H](C)/C=C/C=C/C=C/1C [Everolimus] (100 nM) | 51.5 | 63.1 | 75.5 | 104 | 80.9 | 49.5 | 72.9 | 63.7 | 57.5 | 65.1 | 53.4 | 64.3 | 63.5 | 61.5 | 77.6 | 66.1 | 61 | 87.9 | 61.6 | 104 | 122 | 99.7 | 95.8 | 92.9 | 109 | 95.4 | 158 | 79.6 | 92.5 | 98.1 | 99.3 | 66.4 | 100 | 88.6 | 100 | 111 | 53.1
CC[C@]1(O)C[C@H]2CN(CCc3c([nH]c4ccccc34)[C@@](C(=O)OC)(c3cc4c(cc3OC)N(C=O)[C@H]3[C@@](O)(C(=O)OC)[C@H](OC(C)=O)[C@]5(CC)C=CCN6CC[C@]43[C@@H]65)C2)C1 [Vincristine] (1000 nM) | 63.8 | 50.1 | 28.8 | 12.2 | 68.1 | 18.5 | 71.5 | 42.5 | 38.2 | 25 | 59.3 | 23.8 | 62.2 | 55.3 | 53.5 | 73.2 | 38 | 48.4 | 44.2 | 82.2 | 54.1 | 72.1 | 69.7 | 56.6 | 99.3 | 95.8 | -25.1 | 33.5 | 86.8 | 29.8 | 85 | 75.8 | 78.7 | 102 | 73.4 | 45.3 | 65.1
NS(=O)(=O)OC[C@@H]1C[C@@H](n2ccc3c(N[C@H]4CCc5ccccc54)ncnc32)C[C@@H]1O [Pevonedistat] (10000 nM) | 66.2 | 39.7 | 21 | 18.2 | 91.2 | 30.4 | 72.6 | 0.22 | 32.9 | 60.1 | 123 | 10 | 47.8 | 33.9 | 45.5 | 60.3 | 27 | 46 | 49.9 | 95.5 | 53.7 | 28.2 | 72.6 | 95.7 | 90.5 | 73.8 | 56.6 | 91 | 90.7 | -20.5 | 97 | 87.8 | 104 | 107 | 78.3 | 100 | 99
Cn1c(=O)n(-c2ccc(C(C)(C)C#N)cc2)c2c3cc(-c4cnc5ccccc5c4)ccc3ncc21 [Dactolisib] (1000 nM) | 37.9 | 43 | 57 | 82 | 52.3 | 27.2 | 52.4 | 30.4 | 31.5 | 33.9 | 33.1 | 23.5 | 26.2 | 37.5 | 61.8 | 58 | 25.9 | 51.3 | 42.3 | 104 | 64.6 | 112 | 107 | 87.3 | 115 | 102 | 170 | 101 | -65 | 81.3 | 104 | 130 | 101 | 45.6 | 112 | 126 | 28.8
CCCCCCCCc1ccc(CCC(N)(CO)CO)cc1 [Fingolimod] (10000 nM) | 0.66 | -0.17 | 12.8 | 61.6 | -0.32 | -0.19 | 27.9 | 89.2 | -0.02 | 62.2 | 44.7 | 47.6 | 78.1 | 75.8 | 1.96 | 5.87 | 11.2 | 1.4 | 39.2 | 33.6 | -110 | 44.4 | 91.4 | -90 | 53.7 | 100 | -186 | 37.8 | 67.4 | 47.5 | 69.4 | 97 | 0.12 | 5.79 | 57 | -62.5 | 62.1
COc1ccccc1S(=O)(=O)Nc1ccc2c(c1)CN(C)C(=O)N2 [PFI-1] (10000 nM) | 42.8 | 46.2 | 80 | 56.6 | 54.1 | 64.3 | 65.2 | 71.8 | 65.4 | 41.6 | 82 | 56.9 | 75.8 | 67.1 | 64.6 | 74.1 | 44.5 | 66.8 | 59.5 | 94.5 | 65.1 | 101 | 104 | 125 | 103 | 90.2 | 193 | 135 | 91.6 | 83.5 | 104 | 104 | 105 | 120 | 108 | 117 | 103
Cn1cncc1[C@@](N)(c1ccc(Cl)cc1)c1ccc2c(c1)c(-c1cccc(Cl)c1)cc(=O)n2C [Tipifarnib] (10000 nM) | 63.7 | 61.5 | 34.7 | 40.6 | 74.3 | 33.5 | 60.2 | 46.9 | 31.8 | 49.6 | 54.7 | 59.1 | 63.4 | 49.6 | 53.9 | 53.1 | 40.3 | 73.8 | 39.6 | 92.4 | 75.2 | 81.1 | 98 | 92.6 | 69.9 | 85.6 | 88.8 | 101 | 89.5 | 84 | 81 | 98.7 | 75.5 | 72.2 | 90.4 | 57.5 | 75.5
